Like-named read-outs stand apart in the source and are kept apart here.
How the values were obtained:
[1] = system: S. aureus TOUR; assay: In vitro antibacterial activity (MIC), S. aureus TOUR; assay type: cell-based
Experimental: Minimal inhibitory concentration (MIC) are determined by the twofold serial dilution method in Brain heart infusion broth (Difco); it is supplemented with 2% bovine serum when streptococci are tested. […] The MIC is defined as the lowest concentration which prevents visible growth after overnight incubation at 37° C. The influence of serum is determined on S. aureus Tour by adding 30% bovine serum to the medium. […] The antimicrobial activities of the compounds of the invention in comparison with reference compound (actagardine) are reported in the following Table IV:
^(2) In the presence of 30% bovine serum

[2] = system: S. pyogenes C 203; assay: In vitro antibacterial activity (MIC), S. pyogenes C 203; assay type: cell-based; details: 2% bovine serum, ~10^3 CFU/ml
Experimental: (§1) Minimal inhibitory concentration (MIC) are determined by the twofold serial dilution method in Brain heart infusion broth (Difco); it is supplemented with 2% bovine serum when streptococci are tested. The inoculum size is about 10^3 colony units per ml (CFU/ml). The MIC is defined as the lowest concentration which prevents visible growth after overnight incubation at 37° C. The influence of serum is determined on S. aureus Tour by adding 30% bovine serum to the medium. […] The antimicrobial activities of the compounds of the invention in comparison with reference compound (actagardine) are reported in the following Table IV: […]

[3] = system: S. pneumoniae UC 41; assay: In vitro antibacterial activity (MIC), S. pneumoniae UC 41; assay type: cell-based; details: 2% bovine serum, ~10^3 CFU/ml
Experimental: as §1

[4] = system: S. mitis L 1320; assay: In vitro antibacterial activity (MIC), S. mitis L 1320; assay type: cell-based; details: S. mitis L 1320, clinical isolate; 2% bovine serum
Experimental: (§2) Minimal inhibitory concentration (MIC) are determined by the twofold serial dilution method in Brain heart infusion broth (Difco); it is supplemented with 2% bovine serum when streptococci are tested. The inoculum size is about 10^3 colony units per ml (CFU/ml). The MIC is defined as the lowest concentration which prevents visible growth after overnight incubation at 37° C. The influence of serum is determined on S. aureus Tour by adding 30% bovine serum to the medium. […] The antimicrobial activities of the compounds of the invention in comparison with reference compound (actagardine) are reported in the following Table IV:
(§3) ^(3) Clinical isolates.

[5] = system: S. faecalis D L 1321; assay: In vitro antibacterial activity (MIC), S. faecalis D L 1321; assay type: cell-based; details: S. faecalis D L 1321, clinical isolate; 2% bovine serum
Experimental: as §2, §3

[6] = system: S. salivarius L 1323; assay: In vitro antibacterial activity (MIC), S. salivarius L 1323; assay type: cell-based; details: S. salivarius L 1323, clinical isolate; 2% bovine serum
Experimental: as §2, §3

[7] = system: S. sanguis H L 1324; assay: In vitro antibacterial activity (MIC), S. sanguis H L 1324; assay type: cell-based; details: S. sanguis H L 1324, clinical isolate; 2% bovine serum
Experimental: as §2, §3

[8] = system: S. bovis D L 1325; assay: In vitro antibacterial activity (MIC), S. bovis D L 1325; assay type: cell-based; details: S. bovis D L 1325, clinical isolate; 2% bovine serum
Experimental: as §2, §3

[9] = system: S. pyogenes C 203; assay: In vivo test in mice experimentally infected with S. pyogenes C 203; details: mice infected i.p. with S. pyogenes C 203; s.c. once a day for three days; survival on 10th day
Experimental: (§4) The antimicrobial activity of the compounds of the invention is also confirmed in in vivo test in mices experimentally infected with S. pyogenes or S. pneumoniae. The experiments are conducted essentially as described by R. Pallanza et al., J. Antimicrob. Chemother. 11, 419 (1983).
(§5) The experimental infection was induced in mice by intraperitoneally administering a suspension of the test pathogens. Inocula had been adjusted so that the untreated animals died of septicemia within 48 h. Animals were treated subcutaneously with the test compound once a day for three days starting about 30 min after infection.
(§6) The ED50 value was calculated on the 10th day by the method of Spearman and Karber (D. J. Finney "Statistical Method in Biological Assay", Griffin, page 524, 1952) on the basis of the percentage of survival at each dose.

[10] = Acid-base titration in MCS:H2O (pK of basic functions); assay type: physicochemical; details: MCS:H2O 4:1 (v/v)
Experimental: ^(2) Acid-base titrations were carried out in both aqueous
[methylcellosolve (MCS): water 4:1 (v/v)] and nonaqueous [pyridine or
acetic acid] solvents. The pKMCS values (pK2) of the additional
basic functions were determined in MCS:H2 O 4:1 (v/v) solution by
titration of the compounds with 0.01 N Na OH. The presence of the free
amino group of actagardine (pKMCS 6.3) in the derivatives, except
compound XIII, was confirmed by titration with 0.01 N HCl. Compound XIII
equivalent weights (E W) were obtained by titration with either
hydroxytetrabutylamine (HTBA) in pyridine or perchloric acid (HClO4)
actagardine (pKMCS 6.3) unmodified. Titration in MCS:H2 O 4:1

[11] = Partition coefficient (log P) between n-octanol and water; assay type: physicochemical
Experimental: ^(3) Partition coefficients (log P) were determined between noctanol
and water. The concentration of the compounds in each phase was determine
spectrophotometrically (UV).
^(6) 0.1 M acetate buffer pH 3.0.
is log P between noctanol and 0.1 M phosphate buffer pH 7.3.

[12] = system: S. pneumoniae UC41; assay: In vivo test in mice experimentally infected with S. pneumoniae UC41; details: mice infected i.p. with S. pneumoniae UC41; s.c. once a day for three days; survival on 10th day
Experimental: as §4, §5, §6

[13] = Solubility in water; details: for Solubility in water, pH 4.0 / Solubility in water, pH 7.3: approximate values
[14] = system: S. viridans L 1322; assay: In vitro antibacterial activity (MIC), S. viridans L 1322; assay type: cell-based; details: S. viridans L 1322, clinical isolate; 2% bovine serum
Experimental: as §2, §3

[15] = system: S. pyogenes C 203; assay: Bactericidal activity against growing cells of S. pyogenes C 203; assay type: cell-based; details: 10 times the MIC, Todd-Hewitt broth, 37° C.
Experimental: The antibacterial activity of compound III (a and b) was compared with that of actagardine against growing cells of S. pyogenes C 203. […] For compound III, this level of killing action was obtained also at a dose equal to the MIC (0.4 ug/ml). This comparison was carried out on Todd-Hewitt broth(s) containing compound III and actagardine at concentrations equal to or multiple of the MIC which were inoculated with growing cells of S. pyogenes C 203 (~10^6 CFU/ml). The cultures were incubated at 37° C. with shaking and viable cells were counted at intervals.

[16] = system: gram-positive organisms; details: in vitro and in vivo; cited from earlier work
[17] = n-octanol/0.1 M acetate buffer pH 3.0
[18] = in the presence of 30% bovine serum

| Substance | MIC ([1]; inoculum 10^3 CFU/ml) [µg/mL] | MIC [2] [µg/mL] | MIC [3] [µg/mL] | MIC [4] [µg/mL] | MIC [5] [µg/mL] | MIC [6] [µg/mL] | MIC [7] [µg/mL] | MIC [8] [µg/mL] | ED50 [9] [mg/kg] | Partition Coeff. (log P), CH3(CH2)7OH/H2O, pH 3 [11, 17] | Solubility in water, pH 4.0 [13] [mg/ml] | Solubility in water, pH 7.3 [13] [mg/ml] | MIC [1, 18] [µg/mL] | MIC ([1]; inoculum 10^6 CFU/ml) [µg/mL] | MIC [14] [µg/mL] | other results |
| --- | --- | --- | --- | --- | --- | --- | --- | --- | --- | --- | --- | --- | --- | --- | --- | --- |
| N-ethyl actagardine 3,3-dimethylamino-1-propylamide monocarboxamide [Compound XIII] | 50 | 0.8 | 12.5 | 3.1 | 100 | 0.8 | 50 | 25 | 0.23 | – | – | – | – | – | – | – |
| actagardine 3,3-dimethylamino-1-propylamide monocarboxamide, hydrochloride [IIIb] | – | – | – | – | – | – | – | – | 0.47 | -1.644 | 600 | 200 | – | – | – | pk2 (MCS/H2O) ([10]; pKMCS of additional basic function, titration with 0.01 N NaOH): 9.2; ED50 [12]: 3.5 mg/kg |
| actagardine N-(2-aminoethyl)-1,2-ethanediamine monocarboxamide [IV] | 50 | 0.8 | 12.5 | 3.1 | 100 | 0.8 | 50 | 25 | 0.62 | – | – | – | 12.5 | 50 | 25 | Partition Coeff. (log P), CH3(CH2)7OH/H2O, pH 3 ([11]; 0.1 m acetate buffer, pH 3): -1.353; Partition Coeff. (log P), CH3(CH2)7OH/H2O, H2O ([11]; distilled water): -0.680; Solubility in water, pH 4.0: 100 mg/ml |
| actagardine [reference compound] | 25 | 1.6 | 25 | 12.5 | 100 | 3.1 | 100 | 100 | 0.81 | 0.357 | < 10 | 70 | 25 | 50 | 100 | pKMCS of the free amino group of actagardine ([10]; titration with 0.01 N HCl): 6.3; log P between n-octanol and 0.1 M phosphate buffer pH 7.3 ([11]; n-octanol/0.1 M phosphate buffer pH 7.3): -0.545; killing effect ([15]; 24 h): 99.9%; killing effect ([15]; after 5 h of incubation): 99%; antimicrobial activity (in words) [16]: antimicrobial in vitro and in vivo activity against gram-positive organisms; solubility in water (in words) ([13]; acid form): not soluble in water |
